Read-outs that look alike come from different tables or passages of the source. Marks after values point to notes of the source that are not given here.
Assays:
[1] = system: spontaneous type 2 diabetes mellitus db/db mice; assay: Pharmacodynamic effect on spontaneous type 2 diabetes mellitus db/db mice; type: in vivo
Method: Test example 4 Pharmacodynamic effect of the compounds of the present invention on spontaneous type 2 diabetes mellitus db/db mice
Spontaneous type 2 diabetes mellitus db/db mice and the normal control db/m mice (male, 5-6 weeks old) were used. The db/db mice were randomly divide into […] based on random blood glucose, fasting blood glucose, percentage of blood glucose reduction at 40 min, blood triglycerides, total blood cholesterol, and body weight, which were model group (con), positive control group and three groups of test compound with different doses (n=10).
Mice were administered with drugs by gavage.
The mice were fasted for 2 h, and then the 0 h (fasting) blood samples were collected. Then the mice in each group were administered with drugs by gavage, and blood samples were collected at 1 h, 2 h, 4 h, 6 h, 8 h and 24 h after administration. The blood glucose level was measured using glucose oxidase-peroxidase method, and the area under the blood glucose curve was calculated. Moreover, urine samples were collected 2 h and 4 h after administration to determine the concentration of urine glucose.
On the 15th day of continuous administration, before the mice were fasted, blood samples were collected to measure the random blood glucose. Then the mice were fasted and administered with the compounds, and after 2 h, blood samples were collected to measure the fasting blood glucose. […]
The data were expressed as mean±SEM (n=10). The comparison between multiple groups was performed by one-way analysis of variance, and the comparison between two groups was performed by Dunnett's t test. Statistical graphing was performed using Graphpad Prism software.

mice = conditions: 3000 mg/kg once by gavage; for Death rate (%): 7 days; for Deaths D 1: day 1; for Deaths D 2: day 2; for Deaths D 3: day 3; for Deaths D 4: day 4; for Deaths D 5: day 5; for Deaths D 6: day 6; for Deaths D 7: day 7
Method: Test Example 5 Research on Safety of the Compounds of the Present Invention
The compounds of the present invention were subjected to the following acute toxicity studies in mice.
The symptoms of toxicity reaction and death time were recorded.
On the day before administration, the animals were fasted but provided with water for 17 h. Each test drug group was administered with the corresponding test drug once by gavage, and the blank control group was administered with the same dose of vehicle once by gavage.

SGLT2 = SGLT2 (Homo sapiens (Human), UniProt P31639); assay: In vitro SGLT2 inhibitory activity: 1-NBDG uptake by CHO-SGLT2 cells; type: cell-based; conditions: read-out: Inhibition rate of compounds on SGLT2 (%)
Method: The effect of the compounds on SGLT2-mediated glucose uptake was investigated by establishing an SGLT2 overexpression cell model and using the fluorescent glucose (2-deoxy-1-[(7-nitro-2,1,3-benzoxadiazol-4-yl)amino]-D-glucose, 1-NBDG) tracer method to screen out candidate compounds with SGLT2 inhibitory activity.
The humanized SGLT2 overexpression cells (CHO-SGLT2) constructed from Chinese hamster ovary (CHO) cells were cultured in 1640 medium (Gibco) containing 10% fetal bovine serum (Gibco, 10270), subcultured at a ratio of 1:3, and replaced with new culture medium 3 times every week. Fluorescence detection cell culture plates and other culture flasks were purchased from Corning Company. […] Appropriate amounts of all compounds were weighed, prepared into 100 mM stock solutions with DMSO, and stored at 4° C. in the dark.
Before the 1-NBDG uptake test, CHO-SGLT2 cells were digested and seeded in a 96-well cell culture plate with a cell number of 40,000/well. After the cells were cultured for 48 h, the medium was discarded, and 100 μl of choline buffer was added to each well. After the cells were starved at 37° C. for 30 min, the choline buffer was discarded and 100 μl of the newly prepared Na^+ sodium buffer containing […] 1-NBDG and the test compounds (Compound) was added. The solvent DMSO was used as the negative control (Control) for the test compounds.
The Na^+ sodium buffer without 1-NBDG was used as the blank control (Blank). After 1 h of culture, the incubation solution was discarded. The cells were washed with choline buffer solution 3 times, and then 50 μl of neutral lysate was added to each well to lyse the cells on ice for 10 min. The fluorescence value of each well was detected using a multi-functional microplate reader at […].
At least 3 experimental replicates were set for each compound at indicated concentrations, and the data were expressed as mean±SEM. Uptake amount of 1-NBDG by cells=fluorescence value1-NBDG-fluorescence valueBlank. Inhibition rate on uptake amount of SGLT2 glucose (%)=(uptake amountcontrol−uptake amountcompound)/uptake amountcontrol×100%. Concentration-inhibition rate curves were plotted using Graphpad Prism software, and IC50 values were calculated accordingly.

Chain of SGLT2 (P31639 whole entry): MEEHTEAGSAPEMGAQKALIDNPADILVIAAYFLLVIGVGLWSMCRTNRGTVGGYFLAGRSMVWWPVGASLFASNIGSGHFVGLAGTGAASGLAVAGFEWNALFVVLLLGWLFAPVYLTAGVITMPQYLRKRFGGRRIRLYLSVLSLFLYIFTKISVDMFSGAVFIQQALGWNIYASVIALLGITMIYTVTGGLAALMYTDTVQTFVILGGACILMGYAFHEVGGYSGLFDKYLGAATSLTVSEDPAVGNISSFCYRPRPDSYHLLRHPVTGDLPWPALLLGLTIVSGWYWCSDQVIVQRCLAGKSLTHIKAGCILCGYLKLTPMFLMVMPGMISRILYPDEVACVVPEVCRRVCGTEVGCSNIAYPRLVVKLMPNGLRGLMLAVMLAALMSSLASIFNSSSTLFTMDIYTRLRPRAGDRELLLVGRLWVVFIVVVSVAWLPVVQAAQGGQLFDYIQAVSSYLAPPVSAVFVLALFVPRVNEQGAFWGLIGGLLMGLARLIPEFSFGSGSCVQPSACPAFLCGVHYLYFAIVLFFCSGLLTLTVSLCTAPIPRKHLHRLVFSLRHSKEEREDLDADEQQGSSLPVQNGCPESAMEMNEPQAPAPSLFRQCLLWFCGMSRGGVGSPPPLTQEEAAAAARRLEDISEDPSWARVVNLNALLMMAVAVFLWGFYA

CCOc1ccc(Cc2cc([C@@H]3O[C@H](CO)[C@@H](O)[C@H](O)[C@H]3O)ccc2Cl)cc1 [Dapagliflozin, reference compound]
AUC of blood glucose ([1]; 2.0 mg/kg single administration, 0-24 h): 8866 ± 361.1***^ mg/dl · h
Concentration of blood glucose 0 h ([1]; 2.0 mg/kg single administration, fasting, 0 h before administration): 488.5 ± 29.2 mg/dL
Concentration of blood glucose 1 h ([1]; 2.0 mg/kg single administration, fasting, 1 h): 386.4 ± 16.5 mg/dL
Concentration of blood glucose 2 h ([1]; 2.0 mg/kg single administration, fasting, 2 h): 333.8 ± 13.9 mg/dL
Concentration of blood glucose 4 h ([1]; 2.0 mg/kg single administration, fasting, 4 h): 265.8 ± 9.1 mg/dL
Concentration of blood glucose 6 h ([1]; 2.0 mg/kg single administration, fasting, 6 h): 209.3 ± 8.0 ^ mg/dl
Concentration of blood glucose 8 h ([1]; 2.0 mg/kg single administration, fasting, 8 h): 176.7 ± 10.2 mg/dL
Concentration of blood glucose 24 h ([1]; 2.0 mg/kg single administration, fasting, 24 h): 649.4 ± 40.0 mg/dL
Fasting blood glucose, the 15th day ([1]; 2.0 mg/kg, 15th day): 183.0 ± 11.2 mg/dL
Random blood glucose, the 15th day ([1]; 2.0 mg/kg, 15th day): 344.7 ± 24.1 mg/dL
Fasting blood glucose, the 22nd day ([1]; 2.0 mg/kg, 22nd day): 191.8 ± 11.0 mg/dL
HbA1c ([1]; 2.0 mg/kg, 28th day): 5.1 ± 0.3 %
Random blood glucose, the 22nd day (title: 28th day) ([1]; 2.0 mg/kg, column head 22nd day, title 28th day): 317.0 ± 16.4 mg/dL
Death rate (%) (mice; female): 0%
Deaths D 1 (mice; female): 0
Deaths D 2 (mice; female): 0
Deaths D 3 (mice; female): 0
Deaths D 4 (mice; female): 0
Deaths D 5 (mice; female): 0
Deaths D 6 (mice; female): 0
Deaths D 7 (mice; female): 0
Death rate (%) (mice; male): 80%
Deaths D 1 (mice; male): 0
Deaths D 2 (mice; male): 0
Deaths D 3 (mice; male): 1
Deaths D 4 (mice; male): 1
Deaths D 5 (mice; male): 0
Deaths D 6 (mice; male): 2
Deaths D 7 (mice; male): 0
inhibition at 10 µM (SGLT2; compound concentration 1 × 10^−5 mol/L): 106 ± 4.2%
inhibition at 10 pM (SGLT2; compound concentration 1 × 10^−11 mol/L): 1.9 ± 9.2%
inhibition at 1 pM (SGLT2; compound concentration 1 × 10^−12 mol/L): 6.8 ± 5.9%
inhibition at 0.05 µM (SGLT2; compound concentration 5 × 10^−8 mol/L): 84.3 ± 4%
inhibition at 0.005 µM (SGLT2; compound concentration 5 × 10^−9 mol/L): 84.8 ± 3.2%
inhibition at 0.0005 µM (SGLT2; compound concentration 5 × 10^−10 mol/L): 60.1 ± 2%
inhibition at 50 pM (SGLT2; compound concentration 5 × 10^−11 mol/L): 42 ± 2.8%

Source: patent US20250129055A1, “GLUCOSIDE DERIVATIVE, AND PREPARATION METHOD THEREFOR AND APPLICATION THEREOF” (BEIJING INCREASE INNOVATIVE DRUG CO., LTD., priority 2020, published 2025)
